Legend:
Test in all cases: SelectScreen kinase profiling, SSBK LanthaScreen Binding SP Technology
[1] = target: kinase named in conditions (Homo sapiens, UniProt O00238); conditions: BMPR1B (ALK6), 10 μM
Experimental: (§1) Kinase selectivity screening was performed by Thermo Fisher Scientific (Paisley, U.K.) in their SelectScreen Biochemical Kinase Profiling Service. Assay information and data are presented in the Supporting Information.
(§2) Kinase selectivity screening was performed by ThermoFisher Scientific (Paisley, U.K.) in their SelectScreenTM
(§3) Biochemical Kinase Profiling service .
(§4) Illustration reproduced courtesy of Cell Signaling technology, Inc.
(§5) (B) Illustration of phylogenetic tree of kinases screened.

[2] = target: kinase named in conditions (Homo sapiens, UniProt O14936); conditions: CASK, 10 μM
kinase named in conditions (Homo sapiens, UniProt O14936), sequence (O14936 whole entry): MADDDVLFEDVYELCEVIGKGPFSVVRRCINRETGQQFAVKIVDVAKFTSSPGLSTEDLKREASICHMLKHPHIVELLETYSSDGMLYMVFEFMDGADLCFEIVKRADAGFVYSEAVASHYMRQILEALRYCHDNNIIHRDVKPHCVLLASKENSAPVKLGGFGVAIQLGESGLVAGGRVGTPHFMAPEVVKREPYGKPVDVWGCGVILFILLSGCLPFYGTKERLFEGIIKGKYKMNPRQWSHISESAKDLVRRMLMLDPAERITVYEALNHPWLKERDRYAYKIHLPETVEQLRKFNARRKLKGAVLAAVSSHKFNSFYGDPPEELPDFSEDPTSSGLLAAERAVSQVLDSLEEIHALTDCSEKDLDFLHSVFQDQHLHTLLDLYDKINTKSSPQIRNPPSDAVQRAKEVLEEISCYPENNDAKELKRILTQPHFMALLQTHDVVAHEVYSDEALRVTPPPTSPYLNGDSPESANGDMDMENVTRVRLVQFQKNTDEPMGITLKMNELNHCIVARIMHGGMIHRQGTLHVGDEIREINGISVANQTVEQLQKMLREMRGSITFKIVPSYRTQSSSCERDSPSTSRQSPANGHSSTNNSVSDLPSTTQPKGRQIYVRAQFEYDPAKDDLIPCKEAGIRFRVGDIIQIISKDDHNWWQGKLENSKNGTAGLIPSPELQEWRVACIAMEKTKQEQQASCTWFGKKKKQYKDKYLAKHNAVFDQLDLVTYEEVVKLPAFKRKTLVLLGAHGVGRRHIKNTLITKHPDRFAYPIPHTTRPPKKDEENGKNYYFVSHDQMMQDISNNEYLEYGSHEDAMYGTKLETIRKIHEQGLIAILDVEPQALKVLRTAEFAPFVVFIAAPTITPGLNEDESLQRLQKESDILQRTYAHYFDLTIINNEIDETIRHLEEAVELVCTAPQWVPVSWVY
Experimental: as §1, §2, §3, §4, §5

[3] = target: kinase named in conditions (Homo sapiens, UniProt O75385); conditions: ULK1, 10 μM
Experimental: as §1, §2, §3, §4, §5

[4] = target: kinase named in conditions (Homo sapiens, UniProt O94921); conditions: CDK14 (PFTK1)/cyclin Y, 10 μM
Experimental: as §1, §2, §3, §4, §5

[5] = target: kinase named in conditions (Homo sapiens, UniProt P10721, N822K); conditions: KIT N822K, 10 μM
kinase named in conditions (Homo sapiens, UniProt P10721, N822K), sequence (P10721 26-976 N822K): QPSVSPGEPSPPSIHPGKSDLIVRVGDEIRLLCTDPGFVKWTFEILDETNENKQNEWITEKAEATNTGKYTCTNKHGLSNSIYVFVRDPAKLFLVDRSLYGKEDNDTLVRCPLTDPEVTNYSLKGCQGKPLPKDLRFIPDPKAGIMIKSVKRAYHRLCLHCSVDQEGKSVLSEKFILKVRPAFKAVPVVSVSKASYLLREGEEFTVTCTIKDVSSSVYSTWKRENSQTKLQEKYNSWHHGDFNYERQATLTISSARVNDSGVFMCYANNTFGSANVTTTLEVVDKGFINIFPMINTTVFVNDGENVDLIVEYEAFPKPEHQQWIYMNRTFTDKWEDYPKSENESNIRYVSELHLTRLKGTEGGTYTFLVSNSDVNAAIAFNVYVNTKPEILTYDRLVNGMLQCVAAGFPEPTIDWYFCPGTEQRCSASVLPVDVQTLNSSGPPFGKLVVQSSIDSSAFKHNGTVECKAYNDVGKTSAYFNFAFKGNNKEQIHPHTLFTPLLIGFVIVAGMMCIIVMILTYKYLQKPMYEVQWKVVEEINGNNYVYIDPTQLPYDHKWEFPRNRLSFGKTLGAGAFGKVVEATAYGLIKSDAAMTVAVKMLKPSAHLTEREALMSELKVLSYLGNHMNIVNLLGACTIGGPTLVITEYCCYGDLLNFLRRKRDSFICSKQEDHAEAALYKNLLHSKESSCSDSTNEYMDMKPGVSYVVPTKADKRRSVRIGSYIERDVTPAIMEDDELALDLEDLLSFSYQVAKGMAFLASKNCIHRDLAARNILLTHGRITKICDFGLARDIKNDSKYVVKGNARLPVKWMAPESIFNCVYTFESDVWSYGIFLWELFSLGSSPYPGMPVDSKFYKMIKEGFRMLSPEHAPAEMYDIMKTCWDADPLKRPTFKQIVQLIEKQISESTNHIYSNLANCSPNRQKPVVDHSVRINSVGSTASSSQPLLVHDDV
Experimental: as §1, §2, §3, §4, §5

[6] = target: kinase named in conditions (Homo sapiens, UniProt P10721, Y823D); conditions: KIT Y823D, 10 μM
kinase named in conditions (Homo sapiens, UniProt P10721, Y823D), sequence (P10721 26-976 Y823D): as the sequence (P10721 26-976 N822K) above, with K797N, Y798D counted along it
Experimental: as §1, §2, §3, §4, §5

[7] = target: kinase named in conditions (Homo sapiens, UniProt P15056); conditions: BRAF, 10 μM
Experimental: as §1, §2, §3, §4, §5

[8] = target: kinase named in conditions (Homo sapiens, UniProt P27037); conditions: ACVR2A, 10 μM
kinase named in conditions (Homo sapiens, UniProt P27037), sequence (P27037 20-513): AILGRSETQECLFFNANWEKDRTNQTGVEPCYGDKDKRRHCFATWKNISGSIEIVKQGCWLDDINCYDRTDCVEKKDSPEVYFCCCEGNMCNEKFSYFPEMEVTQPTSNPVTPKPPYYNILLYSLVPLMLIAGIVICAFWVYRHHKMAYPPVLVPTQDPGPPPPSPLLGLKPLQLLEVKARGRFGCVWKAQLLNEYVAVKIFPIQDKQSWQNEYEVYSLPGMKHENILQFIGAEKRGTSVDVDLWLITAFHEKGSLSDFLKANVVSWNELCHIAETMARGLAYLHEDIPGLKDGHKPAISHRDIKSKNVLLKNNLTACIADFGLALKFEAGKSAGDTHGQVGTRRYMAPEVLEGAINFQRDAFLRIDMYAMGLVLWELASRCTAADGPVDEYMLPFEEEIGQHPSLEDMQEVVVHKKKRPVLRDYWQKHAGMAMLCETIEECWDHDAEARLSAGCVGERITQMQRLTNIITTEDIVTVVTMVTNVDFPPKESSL
Experimental: as §1, §2, §3, §4, §5

[9] = target: kinase named in conditions (Homo sapiens, UniProt P29320); conditions: EPHA3, 10 μM
Experimental: as §1, §2, §3, §4, §5

[10] = target: kinase named in conditions (Homo sapiens, UniProt P30530, R499C); conditions: AXL R499C, 10 μM
Experimental: as §1, §2, §3, §4, §5

[11] = target: kinase named in conditions (Homo sapiens, UniProt P36894); conditions: BMPR1A (ALK3), 10 μM
Experimental: as §1, §2, §3, §4, §5

[12] = target: kinase named in conditions (Homo sapiens, UniProt P45985); conditions: MAP2K4 (MEK4), 10 μM
kinase named in conditions (Homo sapiens, UniProt P45985), sequence (P45985 whole entry): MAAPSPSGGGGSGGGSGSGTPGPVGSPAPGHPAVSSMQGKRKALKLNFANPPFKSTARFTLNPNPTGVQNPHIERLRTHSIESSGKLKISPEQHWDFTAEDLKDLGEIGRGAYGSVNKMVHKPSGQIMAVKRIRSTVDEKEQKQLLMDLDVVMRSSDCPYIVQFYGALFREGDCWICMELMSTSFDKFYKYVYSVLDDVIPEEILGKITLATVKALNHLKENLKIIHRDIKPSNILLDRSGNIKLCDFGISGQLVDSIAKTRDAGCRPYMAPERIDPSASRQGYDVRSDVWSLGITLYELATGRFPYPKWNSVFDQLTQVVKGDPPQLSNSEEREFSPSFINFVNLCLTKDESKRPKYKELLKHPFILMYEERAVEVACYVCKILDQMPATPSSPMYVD
Experimental: as §1, §2, §3, §4, §5

[13] = target: kinase named in conditions (Homo sapiens, UniProt P52564, S207E/T211E); conditions: MAP2K6 (MKK6) S207E T211E, 10 μM
Experimental: as §1, §2, §3, §4, §5

[14] = target: kinase named in conditions (Homo sapiens, UniProt Q00535); conditions: CDK5 (Inactive), 10 μM
Experimental: as §1, §2, §3, §4, §5

[15] = target: kinase named in conditions (Homo sapiens, UniProt Q02763, R849W); conditions: TEK (TIE2) R849W, 10 μM
Experimental: as §1, §2, §3, §4, §5

[16] = target: kinase named in conditions (Homo sapiens, UniProt Q04771, R206H); conditions: ACVR1 (ALK2) R206H, 10 μM
Experimental: as §1, §2, §3, §4, §5

[17] = target: kinase named in conditions (Homo sapiens, UniProt Q08345); conditions: DDR1, 10 μM
Experimental: as §1, §2, §3, §4, §5

[18] = target: kinase named in conditions (Homo sapiens, UniProt Q09013); conditions: DMPK, 10 μM
Experimental: as §1, §2, §3, §4, §5

[19] = target: kinase named in conditions (Homo sapiens, UniProt Q13163); conditions: MAP2K5 (MEK5), 10 μM
Experimental: as §1, §2, §3, §4, §5

[20] = target: kinase named in conditions (Homo sapiens, UniProt Q13705); conditions: ACVR2B, 10 μM
Experimental: as §1, §2, §3, §4, §5

[21] = target: kinase named in conditions (Homo sapiens, UniProt Q16832, N456S); conditions: DDR2 N456S, 10 μM
Experimental: as §1, §2, §3, §4, §5

[22] = target: kinase named in conditions (Homo sapiens, UniProt Q16832, T654M); conditions: DDR2 T654M, 10 μM
Experimental: as §1, §2, §3, §4, §5

[23] = target: kinase named in conditions (Homo sapiens, UniProt Q86YV6); conditions: MYLK4, 10 μM
Experimental: as §1, §2, §3, §4, §5

[24] = target: kinase named in conditions (Homo sapiens, UniProt Q96GX5); conditions: MASTL, 10 μM
kinase named in conditions (Homo sapiens, UniProt Q96GX5), sequence (Q96GX5 whole entry): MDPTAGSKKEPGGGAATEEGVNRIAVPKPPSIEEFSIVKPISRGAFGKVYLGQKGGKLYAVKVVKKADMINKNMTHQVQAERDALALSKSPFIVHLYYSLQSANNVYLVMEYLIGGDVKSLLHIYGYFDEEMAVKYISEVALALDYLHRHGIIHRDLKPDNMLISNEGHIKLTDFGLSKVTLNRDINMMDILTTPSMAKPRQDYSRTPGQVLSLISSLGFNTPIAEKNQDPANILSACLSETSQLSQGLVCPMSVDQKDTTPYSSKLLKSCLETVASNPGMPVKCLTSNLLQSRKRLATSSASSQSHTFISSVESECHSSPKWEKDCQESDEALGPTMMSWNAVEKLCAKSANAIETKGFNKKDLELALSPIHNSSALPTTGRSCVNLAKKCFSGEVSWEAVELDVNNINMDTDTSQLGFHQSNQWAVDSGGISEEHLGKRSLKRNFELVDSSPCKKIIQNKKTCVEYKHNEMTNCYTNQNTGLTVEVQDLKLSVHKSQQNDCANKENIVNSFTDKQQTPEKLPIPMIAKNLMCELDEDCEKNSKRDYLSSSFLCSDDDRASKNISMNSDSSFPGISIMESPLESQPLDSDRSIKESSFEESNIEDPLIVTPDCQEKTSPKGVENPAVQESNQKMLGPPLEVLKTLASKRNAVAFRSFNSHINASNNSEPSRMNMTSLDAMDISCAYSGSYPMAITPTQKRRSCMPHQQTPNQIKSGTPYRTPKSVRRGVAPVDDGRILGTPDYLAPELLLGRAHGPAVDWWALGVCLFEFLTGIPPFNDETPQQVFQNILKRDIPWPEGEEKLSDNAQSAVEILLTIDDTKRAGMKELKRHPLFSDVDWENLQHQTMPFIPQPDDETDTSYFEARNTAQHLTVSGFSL
Experimental: as §1, §2, §3, §4, §5

[25] = target: kinase named in conditions (Homo sapiens, UniProt Q96S53); conditions: TESK2, 10 μM
Experimental: as §1, §2, §3, §4, §5

[26] = target: kinase named in conditions (Homo sapiens, UniProt Q9BWU1); conditions: 10 μM
kinase named in conditions (Homo sapiens, UniProt Q9BWU1), sequence (Q9BWU1 whole entry): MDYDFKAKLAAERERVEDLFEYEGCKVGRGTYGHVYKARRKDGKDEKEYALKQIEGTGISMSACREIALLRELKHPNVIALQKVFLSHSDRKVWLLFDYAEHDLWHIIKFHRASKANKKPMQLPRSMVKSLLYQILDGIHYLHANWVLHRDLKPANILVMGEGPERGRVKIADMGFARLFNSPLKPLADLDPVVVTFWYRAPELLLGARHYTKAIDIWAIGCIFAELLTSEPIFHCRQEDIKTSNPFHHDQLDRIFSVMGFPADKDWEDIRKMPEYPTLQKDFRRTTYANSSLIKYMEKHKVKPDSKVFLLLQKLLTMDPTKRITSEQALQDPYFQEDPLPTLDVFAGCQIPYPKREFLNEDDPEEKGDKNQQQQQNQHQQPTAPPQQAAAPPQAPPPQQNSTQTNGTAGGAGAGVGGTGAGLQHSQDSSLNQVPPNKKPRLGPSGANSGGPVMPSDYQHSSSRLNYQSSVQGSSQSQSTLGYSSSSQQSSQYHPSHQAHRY
Experimental: as §1, §2, §3, §4, §5

[27] = target: kinase named in conditions (Homo sapiens, UniProt Q9BYT3); conditions: STK33, 10 μM
Experimental: as §1, §2, §3, §4, §5

[28] = target: kinase named in conditions (Homo sapiens, UniProt Q9H093); conditions: NUAK2, 10 μM
kinase named in conditions (Homo sapiens, UniProt Q9H093), sequence (Q9H093 whole entry): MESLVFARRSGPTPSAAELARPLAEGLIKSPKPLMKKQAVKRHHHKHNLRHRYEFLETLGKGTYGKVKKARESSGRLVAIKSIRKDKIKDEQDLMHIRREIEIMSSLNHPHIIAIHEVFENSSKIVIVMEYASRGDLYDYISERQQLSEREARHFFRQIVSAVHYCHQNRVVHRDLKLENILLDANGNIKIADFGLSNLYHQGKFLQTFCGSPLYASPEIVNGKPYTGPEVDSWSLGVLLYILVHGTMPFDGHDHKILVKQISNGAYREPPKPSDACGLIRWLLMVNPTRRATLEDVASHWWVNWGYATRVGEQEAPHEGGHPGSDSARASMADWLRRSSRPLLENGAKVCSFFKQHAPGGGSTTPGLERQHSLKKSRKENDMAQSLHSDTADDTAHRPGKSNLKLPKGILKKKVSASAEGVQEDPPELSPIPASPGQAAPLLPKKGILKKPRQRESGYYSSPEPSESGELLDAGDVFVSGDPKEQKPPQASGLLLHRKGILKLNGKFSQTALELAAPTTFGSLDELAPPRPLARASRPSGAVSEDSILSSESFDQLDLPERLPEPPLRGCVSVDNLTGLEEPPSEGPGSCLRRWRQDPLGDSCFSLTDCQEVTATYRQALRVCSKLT
Experimental: as §1, §2, §3, §4, §5

[29] = target: kinase named in conditions (Homo sapiens, UniProt Q9H2K8); conditions: TAOK3 (JIK), 10 μM
Experimental: as §1, §2, §3, §4, §5

[30] = target: kinase named in conditions (Homo sapiens, UniProt Q9H4A3); conditions: WNK1, 10 μM
Experimental: as §1, §2, §3, §4, §5

[31] = target: kinase named in conditions (Homo sapiens, UniProt Q9UBE8); conditions: NLK, 10 μM
Experimental: as §1, §2, §3, §4, §5

[32] = target: kinase named in conditions (Homo sapiens, UniProt Q9UEW8); conditions: STK39 (STLK3), 10 μM
Experimental: as §1, §2, §3, §4, §5

[33] = target: kinase named in conditions (Homo sapiens, UniProt Q9UM73, C1156Y); conditions: ALK C1156Y, 10 μM
Experimental: as §1, §2, §3, §4, §5

[34] = target: kinase named in conditions (Homo sapiens, UniProt Q9UM73, R1275Q); conditions: ALK R1275Q, 10 μM
Experimental: as §1, §2, §3, §4, §5

`FC(F)(F)c1c(Cl)ccc(-n2ccnn2)c1Cl` [8l, 1-(2,4-Dichloro-3-(trifluoromethyl)phenyl)-1H-1,2,3-triazole] was tested, and the inhibition at 10 µM [1] was 0%, the inhibition at 10 µM [2] was 18% and the inhibition at 10 µM [3] was -2%. It also gave an inhibition at 10 µM [4] of 43%, an inhibition at 10 µM [5] of -3% and an inhibition at 10 µM [6] of 6%. The inhibition at 10 µM [7] was 7%, the inhibition at 10 µM [8] was 4% and the inhibition at 10 µM [9] was 7%. It also gave an inhibition at 10 µM [10] of 5%, an inhibition at 10 µM [11] of 6% and an inhibition at 10 µM [12] of -2%. For the same molecule, the inhibition at 10 µM [13] was 11%, the inhibition at 10 µM [14] was 1% and the inhibition at 10 µM [15] was 19%. It also gave an inhibition at 10 µM [16] of 0%, an inhibition at 10 µM [17] of 0% and an inhibition at 10 µM [18] of 2%. It also gave an inhibition at 10 µM [19] of -6%, an inhibition at 10 µM [20] of 1% and an inhibition at 10 µM [21] of 26%. It also gave an inhibition at 10 µM [22] of -9%, an inhibition at 10 µM [23] of -5% and an inhibition at 10 µM [24] of -8%. The inhibition at 10 µM [25] was 6%, the inhibition at 10 µM ([26]; CDK11 (Inactive)) was 12% and the inhibition at 10 µM ([26]; CDK11/cyclin C) was 23%. The inhibition at 10 µM [27] was 6%, the inhibition at 10 µM [28] was 7% and the inhibition at 10 µM [29] was -5%. It also gave an inhibition at 10 µM [30] of 2%, an inhibition at 10 µM [31] of 5% and an inhibition at 10 µM [32] of 13%. It also gave an inhibition at 10 µM [33] of 4% and an inhibition at 10 µM [34] of -2%.

— paper PMC9150124, “Design of a Potent, Selective, and Brain-Penetrant Inhibitor of Wnt-Deactivating Enzyme Notum by Optimization of a Crystallographic Fragment Hit” (Journal of Medicinal Chemistry, 2022)
